Measured values published in article PMC11406361, “Several orphan solute carriers functionally identified as organic cation transporters: Substrates specificity compared with known cation transporters” (The Journal of Biological Chemistry, 2024).

What was measured:
hCMEC/D3 cell line = test: Antiport (exchange) of diphenhydramine and nalmefene in hCMEC/D3 cells; format: cell-based, human; settings: hCMEC/D3 preloaded with DPH, within 2 min, unpublished data
SLC22A15 = biological target: T1, SLC22A15 (Homo sapiens, UniProt Q8IZD6); test: Uptake ratio screen, SLC22A15-overexpressing HEK293 over empty vector cells; format: cell-based; settings: 2.5 μM (nicotine 10 μM), 2 min
T1 construct: by amplifying the entire gene-of-interest within the HEK293 genome via a long-range PCR
Experimental: (§1) Typically discussed substrates of the proton organic-cation antiporter ([14]) are highlighted in dark green in Figure 1.
(§2) In preparation for transport experiments, 24-well plates were pre-coated with poly-D-lysine (Sigma-Aldrich) and 300,000 cells were plated per well and incubated for 48 h. Firstly, the 24-well plate was placed on a heating plate at 37 °C, and the cells were washed with 37 °C HBSS^+ buffer (Hank’s balanced salt solution supplemented with 10 mM Hepes and adjusted to pH 7.4; Thermo Fisher Scientific). The substance-of-interest, which was diluted in 37 °C HBSS^+ to a desired concentration, was added to the cells for exactly 2 min. […] The uptake was stopped with ice-cold HBSS^+, and the 24-well plate was removed from the heating plate. The cells were washed twice with the cold HBSS^+ before they were lysed for 15 min with 80% (v/v) acetonitrile containing the respective internal standard for mass spectrometry. For variations in seeded cell numbers between the cell lines, several wells were lysed in RIPA buffer and used for total protein quantification using a bicinchoninic assay ([74]) and bovine serum albumin as calibration.
(§3) The intracellular drug concentrations after transport experiments were analyzed by high-performance liquid chromatography coupled to tandem mass spectrometry analysis. The HPLC consisted of a Shimadzu Nexera HPLC System with a SIL-30AC autosampler, a LC-30AD pump, a CTO-20AC column oven, and a CBM-20A controller (Shimadzu). The reverse-phase chromatography of compounds was accomplished with a Brownlee SPP RP-Amide column with 4.6 × 100 mm inner dimensions, a particle size of 2.7 μm, and a preceding Phenomenex C-18 guard column. The mobile phase was composed of an organic additive with acetonitrile:methanol 6:1 (v/v) in total concentrations between 3% and 50% (v/v) and 0.1% (v/v) formic acid in the aqueous component of the eluent. During separation, the column oven was held at 40 °C and the mobile phase was maintained at a flow rate of 300 or 400 μl/min. After separation, the detection of substances was performed with an API 4000 tandem mass spectrometer (AB SCIEX, https://sciex.com/support/software-support/software-downloads), followed by quantification of results with the Analyst software (AB SCIEX, version 1.6.2). The composition of chromatographic conditions, as well as detailed mass spectrometric detection parameters, are listed in Table S5.
(§4) Transport-mediated net uptake was determined as fold-increase of transporter-overexpressing cells over empty vector–transfected control cells.

SLC35F2 = biological target: T2, SLC35F2 (Homo sapiens, UniProt Q8IXU6); settings: SLC35F2; ratio of Vmax over KM
T2 sequence (Q8IXU6 1-374): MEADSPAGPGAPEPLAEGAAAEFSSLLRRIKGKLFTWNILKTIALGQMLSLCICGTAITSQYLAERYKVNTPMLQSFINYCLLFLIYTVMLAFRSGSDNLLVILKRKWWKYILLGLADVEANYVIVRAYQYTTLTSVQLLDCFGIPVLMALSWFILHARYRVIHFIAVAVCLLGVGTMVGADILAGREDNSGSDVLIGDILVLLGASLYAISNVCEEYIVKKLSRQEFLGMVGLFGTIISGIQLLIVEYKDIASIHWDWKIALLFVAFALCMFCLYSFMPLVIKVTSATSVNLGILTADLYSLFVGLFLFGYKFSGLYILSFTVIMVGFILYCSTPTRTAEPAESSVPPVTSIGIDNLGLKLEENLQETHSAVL

SLC35G3 [1] = biological target: T3, SLC35G3 (Homo sapiens, UniProt Q8N808); test: Uptake ratio screen, SLC35G3-overexpressing HEK293 over empty vector cells; format: cell-based; set-up: by amplifying the entire gene-of-interest within the HEK293 genome via a long-range PCR; settings: 2.5 μM substrate, 2 min, HEK293
SLC35F5 = biological target: T4, SLC35F5 (Homo sapiens, UniProt Q8WV83); test: Uptake ratio screen, SLC35F5-overexpressing HEK293 over empty vector cells; format: cell-based; set-up: by amplifying the entire gene-of-interest within the HEK293 genome via a long-range PCR; settings: 2.5 μM, 2 min
T4 sequence (Q8WV83 1-523): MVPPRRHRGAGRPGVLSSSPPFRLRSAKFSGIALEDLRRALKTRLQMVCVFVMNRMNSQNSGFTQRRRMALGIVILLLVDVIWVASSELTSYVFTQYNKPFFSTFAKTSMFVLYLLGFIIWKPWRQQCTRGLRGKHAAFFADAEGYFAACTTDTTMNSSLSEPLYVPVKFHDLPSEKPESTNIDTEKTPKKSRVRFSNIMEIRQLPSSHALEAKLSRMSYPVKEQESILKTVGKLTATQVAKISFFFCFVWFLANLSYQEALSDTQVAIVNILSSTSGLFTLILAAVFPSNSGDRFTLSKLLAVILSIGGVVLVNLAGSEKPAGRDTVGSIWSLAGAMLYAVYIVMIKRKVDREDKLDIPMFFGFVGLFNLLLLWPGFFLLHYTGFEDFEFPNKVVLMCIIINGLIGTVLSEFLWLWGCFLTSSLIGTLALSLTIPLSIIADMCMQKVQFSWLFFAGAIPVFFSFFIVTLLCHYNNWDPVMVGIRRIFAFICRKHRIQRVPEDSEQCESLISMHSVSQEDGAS
Experimental: as §1, §2, §3, §4

SLC35E2A [2] = biological target: T5, SLC35E2A (Homo sapiens, UniProt P0CK97); test: Uptake ratio screen, SLC35E2A-overexpressing HEK293 over empty vector cells; format: cell-based; set-up: by amplifying the entire gene-of-interest within the HEK293 genome via a long-range PCR; settings: 2.5 μM, 2 min
Experimental: as §1, §2
(§5) The intracellular drug concentrations after transport experiments were analyzed by high-performance liquid chromatography coupled to tandem mass spectrometry analysis. The HPLC consisted of a Shimadzu Nexera HPLC System with a SIL-30AC autosampler, a LC-30AD pump, a CTO-20AC column oven, and a CBM-20A controller (Shimadzu). The reverse-phase chromatography of compounds was accomplished with a Brownlee SPP RP-Amide column with 4.6 × 100 mm inner dimensions, a particle size of 2.7 μm, and a preceding Phenomenex C-18 guard column. […] After separation, the detection of substances was performed with an API 4000 tandem mass spectrometer (AB SCIEX, https://sciex.com/support/software-support/software-downloads), followed by quantification of results with the Analyst software (AB SCIEX, version 1.6.2). […]
as §4

SLC35E2A [3] = biological target: T5, SLC35E2A; settings: ratio of Vmax over KM
SLC35G3 [4] = biological target: T3, SLC35G3; settings: ratio of Vmax over KM
SLC35F4 = biological target: T6, SLC35F4 (Homo sapiens, UniProt A4IF30); test: Uptake ratio screen, SLC35F4-overexpressing HEK293 over empty vector cells; format: cell-based; set-up: by amplifying the entire gene-of-interest within the HEK293 genome via a long-range PCR; settings: 2.5 μM, 2 min
T6 sequence (A4IF30 1-521): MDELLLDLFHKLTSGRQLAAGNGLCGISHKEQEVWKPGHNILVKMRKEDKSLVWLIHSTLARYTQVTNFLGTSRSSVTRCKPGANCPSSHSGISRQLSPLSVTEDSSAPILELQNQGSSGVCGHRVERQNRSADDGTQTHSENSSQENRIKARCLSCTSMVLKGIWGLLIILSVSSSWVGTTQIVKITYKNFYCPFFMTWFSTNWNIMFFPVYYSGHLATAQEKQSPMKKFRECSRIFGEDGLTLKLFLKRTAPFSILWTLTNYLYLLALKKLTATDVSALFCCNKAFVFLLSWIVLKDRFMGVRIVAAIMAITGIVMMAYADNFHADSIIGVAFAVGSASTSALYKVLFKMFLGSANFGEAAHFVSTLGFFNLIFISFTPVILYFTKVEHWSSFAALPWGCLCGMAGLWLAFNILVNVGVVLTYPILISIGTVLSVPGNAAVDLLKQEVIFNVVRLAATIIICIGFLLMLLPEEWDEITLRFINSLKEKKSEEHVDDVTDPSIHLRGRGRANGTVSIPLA
Experimental: as §1, §2, §3, §4

SLC19A2 = biological target: T7, SLC19A2 (Homo sapiens, UniProt O60779); test: Uptake ratio screen, SLC19A2-overexpressing HEK293 over empty vector cells; format: cell-based; settings: 2.5 μM, 2 min
T7 construct: expressed in transfected cells
T7 sequence (O60779 1-497): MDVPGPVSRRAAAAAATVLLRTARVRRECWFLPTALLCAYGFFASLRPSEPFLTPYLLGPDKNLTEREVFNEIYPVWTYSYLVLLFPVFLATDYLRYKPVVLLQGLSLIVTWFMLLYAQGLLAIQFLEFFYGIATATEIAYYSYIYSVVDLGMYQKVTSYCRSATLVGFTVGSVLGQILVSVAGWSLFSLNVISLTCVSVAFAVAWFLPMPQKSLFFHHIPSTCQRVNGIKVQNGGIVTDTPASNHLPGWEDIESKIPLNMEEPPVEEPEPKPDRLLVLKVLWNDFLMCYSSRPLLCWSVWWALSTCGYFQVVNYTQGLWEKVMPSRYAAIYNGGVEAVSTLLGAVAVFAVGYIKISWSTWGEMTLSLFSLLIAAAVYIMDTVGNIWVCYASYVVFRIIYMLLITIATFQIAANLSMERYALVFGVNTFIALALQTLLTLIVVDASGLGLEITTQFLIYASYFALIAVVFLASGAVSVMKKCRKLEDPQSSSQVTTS
Experimental: as §1, §2, §5, §4

SLC19A3 = biological target: T8, SLC19A3 (Homo sapiens, UniProt Q9BZV2); test: Uptake ratio screen, SLC19A3-overexpressing HEK293 over empty vector cells; format: cell-based; settings: 2.5 μM, 2 min
T8 construct: expressed in transfected cells
Experimental: as §1
In preparation for transport experiments, 24-well plates were pre-coated with poly-D-lysine (Sigma-Aldrich) and 300,000 cells were plated per well and incubated for 48 h. Firstly, the 24-well plate was placed on a heating plate at 37 °C, and the cells were washed with 37 °C HBSS^+ buffer (Hank’s balanced salt solution supplemented with 10 mM Hepes and adjusted to pH 7.4; Thermo Fisher Scientific). The substance-of-interest, which was diluted in 37 °C HBSS^+ to a desired concentration, was added to the cells for exactly 2 min. […] For variations in seeded cell numbers between the cell lines, several wells were lysed in RIPA buffer and used for total protein quantification using a bicinchoninic assay ([74]) and bovine serum albumin as calibration.
The intracellular drug concentrations after transport experiments were analyzed by high-performance liquid chromatography coupled to tandem mass spectrometry analysis. […] After separation, the detection of substances was performed with an API 4000 tandem mass spectrometer (AB SCIEX, https://sciex.com/support/software-support/software-downloads), followed by quantification of results with the Analyst software (AB SCIEX, version 1.6.2). […]

T5 sequence (P0CK97 whole entry): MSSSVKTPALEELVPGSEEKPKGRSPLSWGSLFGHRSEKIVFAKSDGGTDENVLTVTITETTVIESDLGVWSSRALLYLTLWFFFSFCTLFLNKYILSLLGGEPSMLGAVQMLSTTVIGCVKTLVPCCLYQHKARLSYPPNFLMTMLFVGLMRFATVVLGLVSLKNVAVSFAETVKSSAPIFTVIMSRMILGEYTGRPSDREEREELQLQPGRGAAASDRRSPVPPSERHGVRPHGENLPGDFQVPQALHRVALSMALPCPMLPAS
T3 sequence (Q8N808 whole entry): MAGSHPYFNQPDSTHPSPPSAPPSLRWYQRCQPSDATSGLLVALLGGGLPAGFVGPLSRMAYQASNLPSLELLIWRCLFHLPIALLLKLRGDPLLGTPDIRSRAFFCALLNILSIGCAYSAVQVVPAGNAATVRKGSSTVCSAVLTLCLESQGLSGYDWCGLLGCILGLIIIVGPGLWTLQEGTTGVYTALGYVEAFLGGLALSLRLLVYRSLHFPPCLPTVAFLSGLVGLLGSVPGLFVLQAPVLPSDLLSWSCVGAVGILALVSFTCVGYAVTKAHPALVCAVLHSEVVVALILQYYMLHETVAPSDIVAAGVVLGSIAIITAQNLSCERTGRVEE
T1 sequence (Q8IZD6 whole entry): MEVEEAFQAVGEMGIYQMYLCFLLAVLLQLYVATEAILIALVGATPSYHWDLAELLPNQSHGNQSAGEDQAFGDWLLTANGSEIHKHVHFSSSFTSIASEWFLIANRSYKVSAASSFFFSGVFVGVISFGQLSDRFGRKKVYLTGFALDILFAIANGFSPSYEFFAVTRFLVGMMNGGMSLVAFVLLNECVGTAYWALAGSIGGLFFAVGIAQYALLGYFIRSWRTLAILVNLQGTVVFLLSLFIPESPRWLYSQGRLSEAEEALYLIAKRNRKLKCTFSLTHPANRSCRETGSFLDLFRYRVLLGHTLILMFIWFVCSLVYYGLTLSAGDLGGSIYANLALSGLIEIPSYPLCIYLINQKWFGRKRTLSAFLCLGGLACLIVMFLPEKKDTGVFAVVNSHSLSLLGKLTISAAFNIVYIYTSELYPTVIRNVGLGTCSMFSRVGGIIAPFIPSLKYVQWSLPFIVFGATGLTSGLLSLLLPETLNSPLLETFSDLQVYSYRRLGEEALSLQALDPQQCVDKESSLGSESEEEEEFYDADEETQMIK
T8 sequence (Q9BZV2 whole entry): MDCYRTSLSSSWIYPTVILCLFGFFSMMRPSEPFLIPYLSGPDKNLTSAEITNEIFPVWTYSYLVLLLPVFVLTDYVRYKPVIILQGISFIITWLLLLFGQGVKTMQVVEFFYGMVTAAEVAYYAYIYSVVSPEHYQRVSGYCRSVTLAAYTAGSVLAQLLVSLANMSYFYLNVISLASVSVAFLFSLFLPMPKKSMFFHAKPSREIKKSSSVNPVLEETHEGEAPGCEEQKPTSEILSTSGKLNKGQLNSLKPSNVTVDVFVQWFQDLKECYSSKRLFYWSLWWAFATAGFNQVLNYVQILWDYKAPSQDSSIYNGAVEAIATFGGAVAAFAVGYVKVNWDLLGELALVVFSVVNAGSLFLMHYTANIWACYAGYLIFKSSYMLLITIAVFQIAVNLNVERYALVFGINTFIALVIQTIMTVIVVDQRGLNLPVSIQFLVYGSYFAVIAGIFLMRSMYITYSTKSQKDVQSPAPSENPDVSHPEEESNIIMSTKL

Row | SMILES | Uptake by SLC22A15 (in words) (SLC22A15) | Uptake data for SLC35G3, mean value (fold-increase over empty vector control) (SLC35G3 [1]) | Uptake by SLC35E2A (in words) (SLC35E2A [2]) | Clint (±SEM) (SLC35E2A [3]) | other results
1 | CN(C)CCOC(c1ccccc1)c1ccccc1 [Diphenhydramine] |  |  |  |  | Share of substrates exchanged (antiport) (hCMEC/D3 cell line): approximately 60%
2 | COC(=O)[C@H]1[C@@H](OC(=O)c2ccccc2)C[C@@H]2CC[C@H]1N2C [Cocaine] | significantly increased the uptake | 2.02 | relatively high activity | 4.14 (±1.59) μl × mg protein^-1 × min^-1 | Clint (±SEM) (SLC35F2): 2.58 (±2.11) μl × mg protein^-1 × min^-1; Uptake by SLC35F5 (in words) (SLC35F5): highest uptake rates; Clint (±SEM) (SLC35G3 [4]): 1.59 (±0.57) μl × mg protein^-1 × min^-1; Uptake by SLC35F4 (in words) (SLC35F4): enhanced cell uptake
3 | COc1ccc2c3c1O[C@H]1C(=O)CC[C@@]4(O)[C@@H](C2)N(C)CC[C@]314 [Oxycodone] | significantly increased the uptake | 1.86 | relatively high activity | 3.44 (±1.49) μl × mg protein^-1 × min^-1 | Uptake by SLC19A2 (in words) (SLC19A2): enhance cell uptake
4 | C[n+]1ccc(-c2ccccc2)cc1 [MPP^+, 1-methyl-4-phenylpyridinium] |  |  |  |  | Uptake by SLC19A3 (in words) (SLC19A3): moderate
